{
  "source": "patent US8835631B2",
  "about": "“Therapeutic agent for cerebral infarction” (Mitsubishi Tanabe Pharma Corporation, priority 2007, dated 2014)",
  "key": {"IL-10": {"test_system": "IL-10", "assay": "IL-10 production in LPS-administered mouse", "assay_type": "in vivo, male BALB/c mouse", "settings": "for IL-10 in LPS model mouse (in words): 10 mg/kg orally 30 min before LPS; for IL-10 production (%): Table 1, 10 mg/kg orally 30 min before LPS 500 μg/kg i.p., plasma 90 min after LPS, ratio to group without test compound", "procedure": "(§1) LPS (lipopolysaccharide, derived from E. coli 0111:B4, Sigma, 500 μg/kg) was intraperitoneally administered to male BALB/c mouse (Charles River Laboratories Japan). After 90 min after LPS administration, the blood was taken under anesthesia, and centrifuged to collect plasma. TNF-α was measured using an Immunoassay Kit (R&D Systems) and IL-10, MCP-1 and IL-6 were measured using an Immunoassay Kit (BIOSOURCE). Test compound A, the compound synthesized in Example 3 (test compound B) and the compound synthesized in Example 7 (test compound C) were dissolved in saline, and the mixture was orally administered at 10 mg/kg 30 min before LPS administration. As shown in the Tables, the effect of each test compound on respective […] cytokines was calculated as the ratio of each cytokine concentration in the blood of the group administered with each test compound to each cytokine concentration in the blood of the group free of administration of each test compound."}, "[1]": {"assay": "Evaluation of bioavailability in rat", "assay_type": "in vivo, male SD(IGS) rats", "settings": "plasma; for AUC0-last / AUC0-∞ / Cmax at 5 min / Cmax: Mean + SD; for Cmax at 5 min / bioavailability / Cmax: male, SD(IGS); for Cmax at 5 min: iv, read-out: Cmax (C5 min, plasma concentration at 5 min after administration); for bioavailability: oral, 3 mg/kg p.o. vs 3 mg/kg i.v., F = (AUC0-∞,p.o./AUC0-∞,i.v.,mean) × (Dosei.v./Dosep.o.) × 100; for Cmax: po, read-out: Cmax", "procedure": "Test compound A, test compound B and test compound C were each dissolved in 0.5% aqueous HPMC (hydroxypropyl methylcellulose) solution in the case of oral administration, or in saline in the case of intravenous administration, and they were orally or intravenously administered to male SD(IGS) rats (Charles River Laboratories Japan) by 3 mg/kg. The concentration of unchanged drug in the plasma of each rat was measured, and bioavailability (F(%)) was calculated (F (%)=(AUC0-∞,p.o./AUC0-∞,i.v.,mean)×(Dosei.v./Dosep.o.)×100). The test compound was administered by gavage using an oral gavage needle (p.o.), or administered in the tail vein (i.v.). The blood samples were collected at 15 and 30 min, 1, 2, 4, 6, 8 and 24 hr after administration in the case of oral administration, and 5 and 30 min, 1, 2, 4, 6, 8 and 24 hr after administration in the case of intravenous administration.\nThe results are shown in Tables 4 (test compound A), 5 (test compound B) and 6 (test compound C). The Cmax values for i.v. in Tables 4, 5 and 6 show plasma concentration at 5 min after administration."}, "MCP-1": {"test_system": "MCP-1", "assay": "MCP-1 production in LPS-administered mouse", "assay_type": "in vivo, male BALB/c mouse", "settings": "for MCP-1 production in LPS model mouse (in words): 10 mg/kg orally 30 min before LPS; for MCP-1 production (%): 10 mg/kg orally 30 min before LPS 500 μg/kg i.p., plasma 90 min after LPS, ratio to group without test compound", "procedure": "as §1"}, "IL-6": {"test_system": "IL-6", "assay": "IL-6 production in LPS-administered mouse", "assay_type": "in vivo, male BALB/c mouse", "settings": "for IL-6 production in LPS model mouse (in words): 10 mg/kg orally 30 min before LPS; for IL-6 production (%): 10 mg/kg orally 30 min before LPS 500 μg/kg i.p., plasma 90 min after LPS, ratio to group without test compound", "procedure": "as §1"}, "TNF-α": {"test_system": "TNF-α", "assay": "TNF-α production in LPS-administered mouse", "assay_type": "in vivo, male BALB/c mouse", "settings": "for TNF-α production in LPS model mouse (in words): 10 mg/kg orally 30 min before LPS; for TNF-α production (%): Table 1, 10 mg/kg orally 30 min before LPS 500 μg/kg i.p., plasma 90 min after LPS, ratio to group without test compound", "procedure": "as §1"}, "[2]": {"test_system": "rat middle cerebral artery occlusion-reperfusion model", "assay": "Cerebral infarction volume in rat middle cerebral artery occlusion-reperfusion model", "assay_type": "in vivo, male Wistar rats", "settings": "10 mg/kg intravenously 30 min after occlusion, reperfusion 90 min after occlusion, brain isolated 24 hr later, TTC stain; FIG. 7", "procedure": "The middle cerebral artery of male Wistar rats (Japan Laboratory Animals Inc.) was obstructed with suture (silicon-coated nylon thread), and saline (Vehicle, n=7), test compound A (10 mg/kg, n=6) dissolved in saline, test compound B ([…], n=7) dissolved in saline, and test compound C (10 mg/kg, n=7) dissolved in saline were each intravenously administered in 30 min after occlusion and the artery was reperfused in 90 min after occlusion. The brain was isolated 24 hr later. A 2 mm brain strip was prepared, and the strip was stained with PBS (pH 7.4, 37° C.) containing 1% 2,3,5-triphenyltetrazolium chloride (TTC, Wako Pure Chemical Industries, Ltd.). The cerebral infarction area was measured by image analysis and the cerebral infarction volume was calculated."}, "[3]": {"assay": "Evaluation of intracerebral transitivity in rat", "assay_type": "in vivo, SD(IGS) rats", "settings": "for Kp at 1 h / Kp at 4 h: SD(IGS), brain, po, 3 mg/kg orally, read-out: Kp value (ratio of plasma concentration and intracerebral concentration); for Kp at 1 h: 1 hr after administration; for Kp at 4 h: 4 hr after administration; for intracerebral transitivity (in words): orally, test compound A 30 mg/kg, test compounds B and C 3 mg/kg", "procedure": "The test compound A dissolved in 0.5% aqueous HPMC solution was orally administered at 30 mg/kg, and test compound B and test compound C dissolved in 0.5% aqueous HPMC solution were each orally administered at 3 mg/kg to SD(IGS) rats (Charles River Laboratories Japan). At 1 hr and 4 hr after the administration of the test compound, blood samples were collected, and the brain (cerebral•cerebellum) was isolated. The plasma concentration and intracerebral concentration of each test compound were measured, and the ratio (Kp value) thereof was calculated, based on which the intracerebral transitivity was evaluated."}, "IL-1β receptor [4]": {"target": "T1, IL-1β receptor (Homo sapiens, UniProt P14778)", "T1 sequence (P14778 18-569)": "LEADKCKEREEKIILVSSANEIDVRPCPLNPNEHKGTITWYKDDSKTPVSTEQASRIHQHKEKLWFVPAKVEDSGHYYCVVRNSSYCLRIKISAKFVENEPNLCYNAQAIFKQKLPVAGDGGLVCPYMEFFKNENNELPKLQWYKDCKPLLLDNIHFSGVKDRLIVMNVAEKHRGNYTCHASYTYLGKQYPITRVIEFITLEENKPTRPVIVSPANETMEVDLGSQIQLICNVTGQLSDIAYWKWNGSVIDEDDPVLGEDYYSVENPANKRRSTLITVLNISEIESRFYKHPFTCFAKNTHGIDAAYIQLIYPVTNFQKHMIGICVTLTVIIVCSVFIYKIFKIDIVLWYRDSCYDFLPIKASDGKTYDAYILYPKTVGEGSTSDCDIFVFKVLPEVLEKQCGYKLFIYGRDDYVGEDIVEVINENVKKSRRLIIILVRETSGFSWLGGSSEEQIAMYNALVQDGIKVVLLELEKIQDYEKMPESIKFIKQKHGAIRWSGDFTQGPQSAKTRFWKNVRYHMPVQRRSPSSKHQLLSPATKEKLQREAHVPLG", "settings": "clinical trial (Phase II); non-patent document 7; cited from earlier work"}, "IL-1β receptor [5]": {"test_system": "IL-1β receptor", "settings": "non-patent document 6; cited from earlier work"}},
  "data": [
    {"compound": "CC(=O)NC1(c2ccc(CN3C[C@@H]4C[C@H]3CN4c3ncccn3)cc2)CC1", "note": "[test compound B, N-[1-(4-{[(1S,4S)-5-(pyrimidin-2-yl)-2,5-diazabicyclo[2.2.1]hept-2-yl]methyl}phenyl)cyclopropyl]acetamide]", "values": [
      {"measurement": "IL-10 in LPS model mouse (in words)", "setting": "IL-10", "result": "increased"},
      {"measurement": "IL-10 production (%)", "setting": "IL-10", "result": 350.1, "unit": "%"},
      {"measurement": "AUC0-last", "setting": "[1]; 3 mg/kg i.v.", "result": "1449.8 ± 123.3", "unit": "ngh/mL"},
      {"measurement": "AUC0-∞", "setting": "[1]; 3 mg/kg i.v.", "result": "1464.6 ± 122.3", "unit": "ngh/mL"},
      {"measurement": "AUC0-last", "setting": "[1]; 3 mg/kg p.o.", "result": "1082.8 ± 171.1", "unit": "ngh/mL"},
      {"measurement": "AUC0-∞", "setting": "[1]; 3 mg/kg p.o.", "result": "1105.7 ± 170.8", "unit": "ngh/mL"},
      {"measurement": "Cmax at 5 min", "setting": "[1]; 3 mg/kg i.v.", "result": "1600 ± 58.3", "unit": "ng/mL"},
      {"measurement": "bioavailability", "setting": "[1]", "result": 75.5, "unit": "%"},
      {"measurement": "Cmax", "setting": "[1]; 3 mg/kg p.o.", "result": 471, "unit": "ng/mL"},
      {"measurement": "MCP-1 production in LPS model mouse (in words)", "setting": "MCP-1", "result": "suppressed"},
      {"measurement": "MCP-1 production (%)", "setting": "MCP-1; Table 2", "result": 63.9, "unit": "%"},
      {"measurement": "IL-6 production in LPS model mouse (in words)", "setting": "IL-6", "result": "suppressed"},
      {"measurement": "IL-6 production (%)", "setting": "IL-6; Table 2", "result": 78.7, "unit": "%"},
      {"measurement": "TNF-α production in LPS model mouse (in words)", "setting": "TNF-α", "result": "suppressed"},
      {"measurement": "TNF-α production (%)", "setting": "TNF-α", "result": 53.9, "unit": "%"},
      {"measurement": "suppression of cerebral infarction volume", "setting": "[2]", "result": 17.8, "unit": "%"},
      {"measurement": "Kp at 1 h", "setting": "[3]", "result": 0.8},
      {"measurement": "Kp at 4 h", "setting": "[3]", "result": 1.3},
      {"measurement": "intracerebral transitivity (in words)", "setting": "[3]", "result": "intracerebrally transferred"}
    ]},
    {"compound": "CC(=O)NC1(c2ccc(CN3CCN(c4ncccn4)CC3)cn2)CC1", "note": "[test compound C, N-(1-{5-[{4-(pyrimidin-2-yl)piperazin-1-yl}methyl]pyridin-2-yl}cyclopropyl)acetamide]", "values": [
      {"measurement": "IL-10 in LPS model mouse (in words)", "setting": "IL-10", "result": "increased"},
      {"measurement": "IL-10 production (%)", "setting": "IL-10", "result": 401.4, "unit": "%"},
      {"measurement": "AUC0-last", "setting": "[1]; 3 mg/kg i.v.", "result": "10173.6 ± 3012.9", "unit": "ngh/mL"},
      {"measurement": "AUC0-∞", "setting": "[1]; 3 mg/kg i.v.", "result": "10446.3 ± 2852.3", "unit": "ngh/mL"},
      {"measurement": "AUC0-last", "setting": "[1]; 3 mg/kg p.o.", "result": "8192.2 ± 3114.3", "unit": "ngh/mL"},
      {"measurement": "AUC0-∞", "setting": "[1]; 3 mg/kg p.o.", "result": "8434.3 ± 2981.5", "unit": "ngh/mL"},
      {"measurement": "Cmax at 5 min", "setting": "[1]; 3 mg/kg i.v.", "result": "4510 ± 359", "unit": "ng/mL"},
      {"measurement": "bioavailability", "setting": "[1]", "result": 80.7, "unit": "%"},
      {"measurement": "Cmax", "setting": "[1]; 3 mg/kg p.o.", "result": 2000, "unit": "ng/mL"},
      {"measurement": "MCP-1 production in LPS model mouse (in words)", "setting": "MCP-1", "result": "suppressed"},
      {"measurement": "MCP-1 production (%)", "setting": "MCP-1; Table 3", "result": 72.1, "unit": "%"},
      {"measurement": "IL-6 production in LPS model mouse (in words)", "setting": "IL-6", "result": "suppressed"},
      {"measurement": "IL-6 production (%)", "setting": "IL-6; Table 3", "result": 81, "unit": "%"},
      {"measurement": "TNF-α production in LPS model mouse (in words)", "setting": "TNF-α", "result": "suppressed"},
      {"measurement": "TNF-α production (%)", "setting": "TNF-α", "result": 50.6, "unit": "%"},
      {"measurement": "suppression of cerebral infarction volume", "setting": "[2]", "result": 43.2, "unit": "%"},
      {"measurement": "Kp at 1 h", "setting": "[3]", "result": 0.8},
      {"measurement": "Kp at 4 h", "setting": "[3]", "result": 0.9},
      {"measurement": "intracerebral transitivity (in words)", "setting": "[3]", "result": "intracerebrally transferred"}
    ]},
    {"compound": "recombinant IL-1ra: an IL-1β receptor antagonist (recombinant IL-1ra)", "values": [
      {"measurement": "cerebral ischemic disorder", "setting": "IL-1β receptor [4]", "result": "alleviating effect"},
      {"measurement": "cerebral ischemic disorder", "setting": "IL-1β receptor [5]", "result": "alleviating action"}
    ]}
  ]
}
